Here are results for 4 compounds from patent publication US9556165B2 (priority 2012, dated 2017).

Common to all, as to type: cell-based
One test relates to E. cloacae 34654. The test is described as follows: MIC determination, broth microdilution (CLSI). The settings on record: for MIC: Enterobacter cloacae, 34654, strain 3.
In the next test the test system is S. maltophilia ICB7569. The test is described as follows: MIC determination, broth microdilution (CLSI). The settings on record: for MIC: Stenotrophomonas maltophilia, ICB7569, strain 10.
Test [1] concerns P. aeruginosa 2297-con (AmpC derepressed). The test is described as follows: MIC determination, broth microdilution (CLSI). The following applies: for MIC: Pseudomonas aeruginosa, read-out: strain 8 MIC, strain 8.
The subject of the next test is E. coli J62. Briefly: MIC determination, broth microdilution (CLSI). The following applies: broth microdilution; for MIC: Escherichia coli, J62, strain 17, read-out: MIC strain 17 (E. coli J62).
A further test has as its system Bacteria. The test is described as follows: MIC determination in combination with β-lactamase inhibitors (constant 4 μg/mL).
For a further test, the system named is A. baumannii ATCC15308. Briefly: MIC determination, broth microdilution (CLSI). The settings on record: for MIC: Acinetobacter baumannii, ATCC15308, strain 9.
The subject of another test is E. coli ATCC25922. The test is described as follows: MIC determination, broth microdilution (CLSI). The settings on record: for MIC: Escherichia coli, ATCC25922, strain 1.
The test system of a further test is P. aeruginosa PAO1. The test is described as follows: MIC determination, broth microdilution (CLSI). The settings on record: for MIC: Pseudomonas aeruginosa, PAO1, strain 6.
A further test relates to K. pneumoniae 60. The test is described as follows: MIC determination, broth microdilution (CLSI). The following applies: for MIC: Klebsiella pneumoniae, 60, strain 2.
Test [2] concerns P. aeruginosa 2297 (AmpC wt). Briefly: MIC determination, broth microdilution (CLSI). The following applies: for MIC: Pseudomonas aeruginosa, strain 7.
The test system of a further test is C. freundii K21/3034. Briefly: MIC determination, broth microdilution (CLSI). The following applies: for MIC: Citrobacter freundii, K21/3034, strain 4.
Another test relates to E. coli J62-TEM-3. The test is described as follows: MIC determination, broth microdilution (CLSI). The following applies: broth microdilution; for MIC: Escherichia coli, J62TEM3, read-out: MIC strain 18 (E. coli J62-TEM-3), strain 18.
A further test deals with S. aureus 133. Briefly: MIC determination, broth microdilution (CLSI).
In a further test the test system is M. morganii 126/3048. Briefly: MIC determination, broth microdilution (CLSI). The following applies: Morganella morganii, 126/3048, strain 5.
A further test deals with H. influenzae ATCC 49247. The test is described as follows: MIC determination, broth microdilution (CLSI). The following applies: Haemophilus influenzae, ATCC49247, strain 12; broth microdilution; read-out: MIC strain 12 (H. influenzae ATCC 49247).
Another test has as its system B. fragilis 6688. The test is described as follows: MIC determination, broth microdilution (CLSI). The settings on record: Bacteroides fragilis, 6688, strain 15; broth microdilution; read-out: MIC strain 15 (B. fragilis 6688).
In a further test the test system is S. pneumoniae 113. Briefly: MIC determination, broth microdilution (CLSI). The following applies: Streptococcus pneumoniae, 113, strain 13; broth microdilution; read-out: MIC strain 13 (S. pneumoniae 113).
The mark [3] stands for this setting: Staphylococcus aureus, 133, strain 14, broth microdilution, read-out: MIC strain 14 (S. aureus 133).

The structures appear in SMILES notation. Values after ≈ are worked out from the molar mass of the structure shown. Like-named read-outs stand apart in the source and are kept apart here.

Regarding `CC1(C)[C@H](NC(=O)/C(=N\O[C@@H](COc2ccc(C(=N)NC3CC3N)cc2)C(=O)O)c2csc(N)n2)C(=O)N1OS(=O)(=O)O` (single isomer, unassigned) [Example 100B], the “strain 3 MIC” value in the test on E. cloacae 34654 (strain 3) stood at 4 µg/mL. Besides, the “strain 10 MIC” value with S. maltophilia ICB7569 (strain 10) came to 32 µg/mL. The “strain 8 MIC” value in test [1] (strain 8) was 16 µg/mL. Besides, the “MIC strain 17 (E. coli J62)” value against E. coli J62 (strain 17) was found to be 4 µg/mL (≈ 6.24 µM). For the same compound, in the test with Bacteria, the “MIC strain 19 (E. coli J62-TEM-3 + 4 μg/mL clavulanic acid)” value turned out to be 2 µg/mL, the “MIC strain 20 (E. coli J62-TEM-3 + 4 μg/mL sulbactam)” value worked out at 2 µg/mL and the “MIC strain 21 (E. coli J62-TEM-3 + 4 μg/mL tazobactam)” value was 2 µg/mL. In the test with A. baumannii ATCC15308 (strain 9), the “strain 9 MIC” value was 32 µg/mL. Besides, in the test with E. coli ATCC25922 (strain 1), the “strain 1 MIC” value was 2 µg/mL. Also, the “strain 6 MIC” value in the test on P. aeruginosa PAO1 (strain 6) came out at 16 µg/mL. Moreover, in the test with K. pneumoniae 60 (strain 2), the “strain 2 MIC” value stood at 2 µg/mL. Also, the “strain 7 MIC” value in test [2] was 32 µg/mL. In addition, in the test on C. freundii K21/3034 (strain 4), the “strain 4 MIC” value came out at 2 µg/mL. In addition, in the test on E. coli J62-TEM-3 (strain 18), the “MIC strain 18 (E. coli J62-TEM-3)” value is 16 µg/mL (≈ 25 µM).

As to `CC1(C)[C@H](NC(=O)/C(=N\OCCOc2ccc(C(=N)N3CCNCC3)cc2)c2csc(N)n2)C(=O)N1OS(=O)(=O)O` [Example 80, (2Z)-2-(2-Amino-1,3-thiazol-4-yl)-N-[(3S)-2,2-dimethyl-4-oxo-1-(sulfooxy)azetidin-3-yl]-2-[(2-{4-[imino(piperazin-1-yl)methyl]phenoxy}ethoxy)imino]ethanamide], the MIC against E. cloacae 34654 was 1 µg/mL (≈ 1.64 µM); in the test with S. maltophilia ICB7569, 32 µg/mL (≈ 52.4 µM); in [1], 8 µg/mL (≈ 13.1 µM); with E. coli J62 it was 0.5 µg/mL (≈ 0.819 µM); in the test on S. aureus 133 (setting [3]), 4 µg/mL (≈ 6.55 µM); in the test with A. baumannii ATCC15308, 2 µg/mL (≈ 3.28 µM). Further, the MIC against E. coli ATCC25922 stood at 0.25 µg/mL (≈ 0.409 µM); with P. aeruginosa PAO1, 16 µg/mL (≈ 26.2 µM); with K. pneumoniae 60, 0.5 µg/mL (≈ 0.819 µM); in test [2], 16 µg/mL (≈ 26.2 µM); in the test on C. freundii K21/3034, 0.25 µg/mL (≈ 0.409 µM); with E. coli J62-TEM-3, 16 µg/mL (≈ 26.2 µM). For the same compound, in the test with Bacteria, the “MIC strain 19 (E. coli J62-TEM-3 + 4 μg/mL clavulanic acid)” value is 0.5 µg/mL. The “MIC strain 20 (E. coli J62-TEM-3 + 4 μg/mL sulbactam)” value in the test with Bacteria turned out to be 0.5 µg/mL. In addition, in the test with Bacteria, the “MIC strain 21 (E. coli J62-TEM-3 + 4 μg/mL tazobactam)” value was 0.5 µg/mL.

Consider `C[C@H]1[C@H](NC(=O)/C(=N\OCCOc2cc(C(=N)N)nn2C)c2csc(N)n2)C(=O)N1S(=O)(=O)O` [Example 71, (2S,3S)-3-{[(2Z)-2-(2-Amino-1,3-thiazol-4-yl)-2-({2-[(3-carbamimidoyl-1-methyl-1H-pyrazol-5-yl)oxy]ethoxy}imino)acetyl]amino}-2-methyl-4-oxoazetidine-1-sulfonic acid], for which the MIC in the test on E. cloacae 34654 is 4 µg/mL (≈ 7.76 µM); against S. maltophilia ICB7569 it was 4 µg/mL (≈ 7.76 µM); in the test on E. coli J62, 8 µg/mL (≈ 15.5 µM); in the test with S. aureus 133 (Staphylococcus aureus, 133, strain 11, read-out: strain 11 MIC), 0.25 µg/mL (≈ 0.485 µM); with M. morganii 126/3048, 1 µg/mL (≈ 1.94 µM); in the test on H. influenzae ATCC 49247, 1 µg/mL (≈ 1.94 µM). The MIC is 4 µg/mL (≈ 7.76 µM) against A. baumannii ATCC15308; 8 µg/mL (≈ 15.5 µM) with B. fragilis 6688; 2 µg/mL (≈ 3.88 µM) with E. coli ATCC25922; 16 µg/mL (≈ 31 µM) against P. aeruginosa PAO1; 1 µg/mL (≈ 1.94 µM) in the test with K. pneumoniae 60; 32 µg/mL (≈ 62.1 µM) in test [2]. In addition, the MIC against C. freundii K21/3034 was 1 µg/mL (≈ 1.94 µM); with S. pneumoniae 113, 0.5 µg/mL (≈ 0.97 µM); with E. coli J62-TEM-3, 32 µg/mL (≈ 62.1 µM). For the same compound, the “MIC strain 19 (E. coli J62-TEM-3 + 4 μg/mL clavulanic acid)” value with Bacteria stood at 2 µg/mL. For the same compound, the “MIC strain 20 (E. coli J62-TEM-3 + 4 μg/mL sulbactam)” value in the test on Bacteria came to 4 µg/mL. In addition, the “MIC strain 21 (E. coli J62-TEM-3 + 4 μg/mL tazobactam)” value with Bacteria was found to be 4 µg/mL.

In the case of `CC1(C)[C@H](NC(=O)/C(=N\O[C@@H](COc2ccc(C(=N)N[C@H]3CCNC3)cc2)C(=O)O)c2csc(N)n2)C(=O)N1OS(=O)(=O)O` [Example 93], the MIC against E. cloacae 34654 was 0.125 µg/mL (≈ 0.191 µM); against S. maltophilia ICB7569, 4 µg/mL (≈ 6.11 µM); in [1], 1 µg/mL (≈ 1.53 µM); with E. coli J62, 0.125 µg/mL (≈ 0.191 µM); in the test on S. aureus 133 (setting [3]), 32 µg/mL (≈ 48.9 µM); in the test on A. baumannii ATCC15308, 1 µg/mL (≈ 1.53 µM). The MIC is at most 0.063 µg/mL against E. coli ATCC25922; 1 µg/mL (≈ 1.53 µM) against P. aeruginosa PAO1; 0.125 µg/mL (≈ 0.191 µM) in the test with K. pneumoniae 60; 1 µg/mL (≈ 1.53 µM) in [2]; at most 0.063 µg/mL against C. freundii K21/3034; 4 µg/mL (≈ 6.11 µM) with E. coli J62-TEM-3. In addition, the “MIC strain 19 (E. coli J62-TEM-3 + 4 μg/mL clavulanic acid)” value in the test on Bacteria amounted to 0.125 µg/mL. The “MIC strain 20 (E. coli J62-TEM-3 + 4 μg/mL sulbactam)” value with Bacteria turned out to be 0.125 µg/mL. Also, the “MIC strain 21 (E. coli J62-TEM-3 + 4 μg/mL tazobactam)” value with Bacteria was 0.125 µg/mL.
